Laboratory results: PubChem BioAssay (NCI)
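All cell lines were grown in 96-well plates and treated with compound for 48 hours. GI50: concentration for 50% inhibition of growth. TGI: total growth inhibition.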

Legend:
Assay in all cases: growth of human tumour cells (NCI), 48 h
HS 578T breast = tested on: HS 578T breast
SK-OV-3 ovarian = tested on: SK-OV-3 ovarian
RXF 393 renal = tested on: RXF 393 renal
MALME-3M melanoma = tested on: MALME-3M melanoma
KM12 colon = tested on: KM12 colon
SF-268 CNS = tested on: SF-268 CNS
CAKI-1 renal = tested on: CAKI-1 renal
RPMI-8226 leukemia = tested on: RPMI-8226 leukemia
ACHN renal = tested on: ACHN renal
LOX IMVI melanoma = tested on: LOX IMVI melanoma
HCT-116 colon = tested on: HCT-116 colon
SN12C renal = tested on: SN12C renal
MCF7 breast = tested on: MCF7 breast
HOP-62 NSCLC = tested on: HOP-62 NSCLC
NCI/ADR-RES ovarian = tested on: NCI/ADR-RES ovarian
SR leukemia = tested on: SR leukemia
HT29 colon = tested on: HT29 colon
OVCAR-4 ovarian = tested on: OVCAR-4 ovarian
NCI-H522 lung = tested on: NCI-H522 lung
NCI-H23 lung = tested on: NCI-H23 lung
CCRF-CEM leukemia = tested on: CCRF-CEM leukemia
SF-539 CNS = tested on: SF-539 CNS
SNB-19 CNS = tested on: SNB-19 CNS
M14 melanoma = tested on: M14 melanoma
SK-MEL-5 melanoma = tested on: SK-MEL-5 melanoma
MOLT-4 leukemia = tested on: MOLT-4 leukemia
HOP-92 NSCLC = tested on: HOP-92 NSCLC
HCT-15 colon = tested on: HCT-15 colon
UACC-257 melanoma = tested on: UACC-257 melanoma
COLO 205 colon = tested on: COLO 205 colon
SK-MEL-2 melanoma = tested on: SK-MEL-2 melanoma
786-0 renal = tested on: 786-0 renal
PC-3 prostate = tested on: PC-3 prostate
IGROV1 ovarian = tested on: IGROV1 ovarian
A498 renal = tested on: A498 renal
HL-60(TB) leukemia = tested on: HL-60(TB) leukemia
NCI-H226 lung = tested on: NCI-H226 lung
A549 NSCLC = tested on: A549 NSCLC
HCC-2998 colon = tested on: HCC-2998 colon
OVCAR-5 ovarian = tested on: OVCAR-5 ovarian
MDA-MB-435 = tested on: MDA-MB-435
OVCAR-8 ovarian = tested on: OVCAR-8 ovarian
OVCAR-3 ovarian = tested on: OVCAR-3 ovarian
U251 CNS = tested on: U251 CNS
DU-145 prostate = tested on: DU-145 prostate
K-562 leukemia = tested on: K-562 leukemia
SNB-75 CNS = tested on: SNB-75 CNS
TK-10 renal = tested on: TK-10 renal
EKVX NSCLC = tested on: EKVX NSCLC
SW-620 colon = tested on: SW-620 colon
UO-31 renal = tested on: UO-31 renal
NCI-H460 lung = tested on: NCI-H460 lung
SF-295 CNS = tested on: SF-295 CNS
UACC-62 melanoma = tested on: UACC-62 melanoma
BT-549 breast = tested on: BT-549 breast
SK-MEL-28 melanoma = tested on: SK-MEL-28 melanoma
MDA-MB-231 breast = tested on: MDA-MB-231 breast
T-47D breast = tested on: T-47D breast

COc1cccc(/C=C/C(=O)c2c(C)nc3ccccc3c2/C=C/c2ccccc2)c1OC
GI50 (HS 578T breast): 3590 nM | TGI (HS 578T breast): > 100000 nM | GI50 (SK-OV-3 ovarian): 54100 nM | TGI (SK-OV-3 ovarian): > 100000 nM

COc1ccc(-c2cnnn2-c2nonc2-n2cccc2)cc1
GI50 (RXF 393 renal): 138 nM | TGI (RXF 393 renal): 609 nM | GI50 (MALME-3M melanoma): 382 nM | TGI (MALME-3M melanoma): 27600 nM | GI50 (KM12 colon): 160 nM | TGI (KM12 colon): 8530 nM | GI50 (SF-268 CNS): 520 nM | TGI (SF-268 CNS): 27600 nM | GI50 (CAKI-1 renal): 245 nM | TGI (CAKI-1 renal): > 67100 nM | GI50 (RPMI-8226 leukemia): 353 nM | TGI (RPMI-8226 leukemia): 5020 nM | GI50 (ACHN renal): 1050 nM | TGI (ACHN renal): > 94000 nM | GI50 (LOX IMVI melanoma): 594 nM | TGI (LOX IMVI melanoma): 19000 nM | GI50 (HCT-116 colon): 354 nM | GI50 (HS 578T breast): 239 nM | TGI (HS 578T breast): 2130 nM | GI50 (SN12C renal): 595 nM | TGI (SN12C renal): > 100000 nM | GI50 (MCF7 breast): 277 nM | TGI (MCF7 breast): 60300 nM | GI50 (HOP-62 NSCLC): 340 nM | TGI (HOP-62 NSCLC): > 83100 nM | GI50 (NCI/ADR-RES ovarian): 102 nM | TGI (NCI/ADR-RES ovarian): 670 nM | GI50 (SR leukemia): 45.1 nM | TGI (SR leukemia): > 60300 nM | GI50 (HT29 colon): 128 nM | TGI (HT29 colon): 2800 nM | GI50 (OVCAR-4 ovarian): 1780 nM | TGI (OVCAR-4 ovarian): > 100000 nM | GI50 (NCI-H522 lung): 136 nM | TGI (NCI-H522 lung): 487 nM | GI50 (NCI-H23 lung): 246 nM | TGI (NCI-H23 lung): 5820 nM | GI50 (CCRF-CEM leukemia): 228 nM | TGI (CCRF-CEM leukemia): 3850 nM | GI50 (SF-539 CNS): 321 nM | TGI (SF-539 CNS): 4000 nM | GI50 (SNB-19 CNS): 722 nM | TGI (SNB-19 CNS): > 100000 nM | GI50 (M14 melanoma): 209 nM | TGI (M14 melanoma): 6620 nM | GI50 (SK-MEL-5 melanoma): 324 nM | TGI (SK-MEL-5 melanoma): 13200 nM | GI50 (MOLT-4 leukemia): 498 nM | TGI (MOLT-4 leukemia): 12600 nM | GI50 (HOP-92 NSCLC): 437 nM | TGI (HOP-92 NSCLC): 43900 nM | GI50 (HCT-15 colon): 311 nM | TGI (HCT-15 colon): > 100000 nM | GI50 (UACC-257 melanoma): 373 nM | TGI (UACC-257 melanoma): 35100 nM | GI50 (SK-OV-3 ovarian): 319 nM | TGI (SK-OV-3 ovarian): 4280 nM | GI50 (COLO 205 colon): 235 nM | TGI (COLO 205 colon): 787 nM | GI50 (SK-MEL-2 melanoma): 189 nM | TGI (SK-MEL-2 melanoma): 800 nM | GI50 (786-0 renal): 488 nM | TGI (786-0 renal): > 34000 nM | GI50 (PC-3 prostate): 331 nM | TGI (PC-3 prostate): 31900 nM | GI50 (IGROV1 ovarian): 536 nM | TGI (IGROV1 ovarian): > 92800 nM | GI50 (A498 renal): 183 nM | TGI (A498 renal): 893 nM | GI50 (HL-60(TB) leukemia): 177 nM | TGI (HL-60(TB) leukemia): 547 nM | GI50 (NCI-H226 lung): 705 nM | TGI (NCI-H226 lung): 33300 nM | GI50 (A549 NSCLC): 450 nM | TGI (A549 NSCLC): > 44800 nM | GI50 (HCC-2998 colon): 235 nM | TGI (HCC-2998 colon): 2890 nM | GI50 (OVCAR-5 ovarian): 1450 nM | TGI (OVCAR-5 ovarian): > 100000 nM | GI50 (MDA-MB-435): 32.5 nM | TGI (MDA-MB-435): 173 nM | GI50 (OVCAR-8 ovarian): 425 nM | TGI (OVCAR-8 ovarian): 18900 nM | GI50 (OVCAR-3 ovarian): 179 nM | TGI (OVCAR-3 ovarian): 470 nM | GI50 (U251 CNS): 344 nM | TGI (U251 CNS): 8410 nM | GI50 (DU-145 prostate): 342 nM | TGI (DU-145 prostate): 2620 nM | GI50 (K-562 leukemia): 39 nM | TGI (K-562 leukemia): > 100000 nM | GI50 (SNB-75 CNS): 222 nM | GI50 (TK-10 renal): 2120 nM | TGI (TK-10 renal): > 61000 nM | GI50 (EKVX NSCLC): 547 nM | TGI (EKVX NSCLC): > 94700 nM | GI50 (SW-620 colon): 149 nM | TGI (SW-620 colon): > 100000 nM | GI50 (UO-31 renal): 298 nM | TGI (UO-31 renal): 37600 nM | GI50 (NCI-H460 lung): 344 nM | TGI (NCI-H460 lung): 11600 nM | GI50 (SF-295 CNS): 246 nM | TGI (SF-295 CNS): 6210 nM | GI50 (UACC-62 melanoma): 529 nM | TGI (UACC-62 melanoma): 28200 nM | GI50 (BT-549 breast): 698 nM | TGI (BT-549 breast): 34600 nM | GI50 (SK-MEL-28 melanoma): 520 nM | TGI (SK-MEL-28 melanoma): > 100000 nM | GI50 (MDA-MB-231 breast): 1210 nM | TGI (MDA-MB-231 breast): > 25000 nM

COc1cc2c(cc1O)CCN[C@]21CS[C@@H]2c3c(OC(C)=O)c(C)c4c(c3[C@H](COC1=O)N1[C@@H]2[C@H]2c3c(cc(C)c(OC)c3O)C[C@@H]([C@@H]1O)N2C)OCO4
TGI (RXF 393 renal): 4.01 nM | TGI (SF-268 CNS): 48.6 nM | TGI (CAKI-1 renal): 1360 nM | TGI (RPMI-8226 leukemia): 5.29 nM | TGI (LOX IMVI melanoma): 262 nM | TGI (HCT-116 colon): 2940 nM | TGI (SN12C renal): 3900 nM | TGI (MCF7 breast): 979 nM | TGI (HOP-62 NSCLC): 252 nM | GI50 (NCI/ADR-RES ovarian): 5.91 nM | TGI (NCI/ADR-RES ovarian): 2610 nM | TGI (SR leukemia): 10500 nM | TGI (HT29 colon): 2520 nM | TGI (OVCAR-4 ovarian): 71.8 nM | TGI (NCI-H522 lung): 7.46 nM | TGI (T-47D breast): 3020 nM | TGI (NCI-H23 lung): 5.7 nM | TGI (CCRF-CEM leukemia): 3110 nM | TGI (SNB-19 CNS): 1390 nM | TGI (M14 melanoma): 3.83 nM | TGI (SK-MEL-5 melanoma): 4.33 nM | TGI (MOLT-4 leukemia): 8760 nM | GI50 (HOP-92 NSCLC): 2.73 nM | TGI (HOP-92 NSCLC): 51.8 nM | GI50 (HCT-15 colon): 3.79 nM | TGI (HCT-15 colon): 361 nM | TGI (UACC-257 melanoma): 5.57 nM | GI50 (SK-OV-3 ovarian): 3.09 nM | TGI (SK-OV-3 ovarian): 3990 nM | GI50 (SK-MEL-2 melanoma): 3.1 nM | TGI (SK-MEL-2 melanoma): 5.11 nM | TGI (786-0 renal): 948 nM | GI50 (PC-3 prostate): 2.79 nM | TGI (PC-3 prostate): 119 nM | GI50 (IGROV1 ovarian): 2.57 nM | TGI (IGROV1 ovarian): 1960 nM | TGI (HL-60(TB) leukemia): 11.4 nM | GI50 (NCI-H226 lung): 3.13 nM | TGI (NCI-H226 lung): 5.82 nM | GI50 (A549 NSCLC): 3.19 nM | TGI (A549 NSCLC): 2830 nM | GI50 (HCC-2998 colon): 3.52 nM | TGI (HCC-2998 colon): 6.52 nM | TGI (OVCAR-5 ovarian): 1190 nM | TGI (OVCAR-8 ovarian): 4830 nM | TGI (OVCAR-3 ovarian): 5.7 nM | TGI (U251 CNS): 1020 nM | TGI (DU-145 prostate): 1000 nM | TGI (K-562 leukemia): 7980 nM | GI50 (TK-10 renal): 3.31 nM | TGI (TK-10 renal): 3540 nM | GI50 (EKVX NSCLC): 4.67 nM | TGI (EKVX NSCLC): 45.9 nM | TGI (SW-620 colon): 130 nM | TGI (NCI-H460 lung): 808 nM | TGI (SF-295 CNS): 1010 nM | TGI (UACC-62 melanoma): 4.03 nM | TGI (BT-549 breast): 6.12 nM | TGI (MDA-MB-231 breast): 19.9 nM
